What follows are compounds tested against T1, NanoBiT® HiBiT non-luminescent peptide and LgBiT non-luminescent polypeptide (HiBiT/LgBiT bioluminescent complex) (Oplophorus gracilirostris, UniProt Q9GV45, A31E/A60N/A81I/C191F/D135N/E192K/F58L/F95D/G184S/G42A/G62A/G78A/G94A/G98A/H120P/I103V/I117V/I134L/K70R/L176M/L195S/L54V/L73R/L99Q/M102E/N171T/N193K/P142E/Q151K/Q38E/Q45L/T186S/V71I/Y165I) (assay: biochemical).
T1 construct: fused on or other part: N-terminal Met-Val on LgBiT in place of the signal peptide (residues 1-27); The chain is split between residues 184 and 185 into LgBiT and the 11-residue HiBiT peptide (residues 185-195); C-terminal A196 is absent
T1 sequence (Q9GV45 other isoform, or with tags, fused parts or gaps with the stated changes): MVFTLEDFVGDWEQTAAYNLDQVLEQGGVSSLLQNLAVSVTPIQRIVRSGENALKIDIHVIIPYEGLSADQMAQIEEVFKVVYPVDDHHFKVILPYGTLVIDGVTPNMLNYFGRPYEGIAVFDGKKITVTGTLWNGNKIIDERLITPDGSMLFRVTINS

Cc1ccc(NC(=O)c2ccccc2NS(=O)(=O)c2cccc(Br)c2)cc1 [JRW-1267, 2-((3-bromophenyl)sulfonamido)-N-(p-tolyl)benzamide] and Cc1ccc(NC(=O)c2ccccc2NS(=O)(=O)c2cccc(O)c2)cc1 [JRW-1236, 2-((3-hydroxyphenyl)sulfonamido)-N-(p-tolyl)benzamide] are within 1.5-fold of each other in IC50: 36 nM for the first, 33 nM for the second.

Cc1ccc(S(=O)(=O)Nc2ccccc2C(=O)Nc2ccc(CCCCBr)cc2)cc1 [JRW-1152, N-(4-(4-bromobutyl)phenyl)-2-((4-methylphenyl)sulfonamido)benzamide] and Cc1ccc(NC(=O)c2ccccc2NS(=O)(=O)c2ccc(Br)cc2)cc1 [JRW-1287, 2-((4-bromophenyl)sulfonamido)-N-(p-tolyl)benzamide] are within 1.5-fold of each other in IC50: 120 nM for the first, 150 nM for the second.

Cc1ccc(S(=O)(=O)Nc2ccc(C(F)(F)F)cc2C(=O)Nc2cc3ccccc3s2)cc1 [JRW-1388, N-(benzo[b]thiophen-2-yl)-2-((4-methylphenyl)sulfonamido)-5-(trifluoromethyl)benzamide] and Cc1ccc(S(=O)(=O)Nc2ccc(F)cc2C(=O)Nc2cc3ccccc3s2)cc1 [JRW-1347, N-(benzo[b]thiophen-2-yl)-5-fluoro-2-((4-methylphenyl)sulfonamido)benzamide] are within 1.5-fold of each other in IC50: 0.58 nM for the first, 0.8 nM for the second.

First: Cc1ccc(S(=O)(=O)Nc2ccccc2C(=O)Nc2cccc(C)c2)cc1 [HL-0044, 2-((4-methylphenyl)sulfonamido)-N-(m-tolyl)benzamide]
Second: Cc1ccc(S(=O)(=O)Nc2ccccc2C(=O)Nc2cccc(Br)c2)cc1 [JRW-1283, N-(3-bromophenyl)-2-((4-methylphenyl)sulfonamido)benzamide]
The IC50 of the first is 1.9-fold higher: 88 nM for the first, 46 nM for the second. The second is the more potent here.

Compared with CCCCc1ccc(S(=O)(=O)Nc2ccccc2C(=O)Nc2cc3ccccc3s2)cc1 [JRW-1114, N-(benzo[b]thiophen-2-yl)-2-((4-butylphenyl)sulfonamido)benzamide], COC(=O)CCc1ccc(S(=O)(=O)Nc2ccccc2C(=O)Nc2cc3ccccc3s2)cc1 [HL-0040, methyl 3-(4-(N-(2-(benzo[b]thiophen-2-ylcarbamoyl)phenyl)sulfamoyl)phenyl)propanoate] is 2.5-fold higher in IC50: 170 nM for the first, 430 nM for the second. The first is the more potent here.

Cc1ccc(S(=O)(=O)Nc2ccccc2C(=O)Nc2ccccc2)cc1 [JRW-1011, 2-((4-methylphenyl)sulfonamido)-N-phenylbenzamide] and Cc1ccc(S(=O)(=O)Nc2ccccc2C(=O)Nc2cccc(-c3ccccc3)c2)cc1 [JRW-1297, N-([1,1′-biphenyl]-3-yl)-2-((4-methylphenyl)sulfonamido)benzamide] are within 1.5-fold of each other in IC50: 94 nM for the first, 100 nM for the second.

Compared with CCOC(=O)Cc1ccc(NC(=O)c2ccccc2NS(=O)(=O)c2ccc(C)cc2)cc1 [HL-0023, ethyl 2-(4-(2-((4-methylphenyl)sulfonamido)benzamido)phenyl)acetate], COc1ccc(NC(=O)c2ccccc2NS(=O)(=O)c2ccc(C)cc2)cc1 [JRW-1300, N-(4-methoxyphenyl)-2-((4-methylphenyl)sulfonamido)benzamide] is 13-fold lower in IC50: 580 nM for the first, 43 nM for the second. The second is the more potent here.

Going from CCCCc1ccc(NS(=O)(=O)c2ccc(C)cc2)c(C(=O)Nc2cc3ccccc3s2)c1 [JRW-1146, N-(benzo[b]thiophen-2-yl)-5-butyl-2-((4-methylphenyl)sulfonamido)benzamide] to COc1ccc(NS(=O)(=O)c2ccc(C)cc2)c(C(=O)Nc2cc3ccccc3s2)c1 [JRW-1167, N-(benzo[b]thiophen-2-yl)-5-methoxy-2-((4-methylphenyl)sulfonamido)benzamide], the IC50 falls from 630 nM to 20 nM (32-fold). The second is the more potent here.

Going from Cc1ccc(S(=O)(=O)Nc2ccccc2C(=O)Nc2ccc3c(c2)CCCC3)cc1 [HL-0008, 2-((4-methylphenyl)sulfonamido)-N-(5,6,7,8-tetrahydronaphthalen-2-yl)benzamide] to COc1cccc(NC(=O)c2ccccc2NS(=O)(=O)c2ccc(C)cc2)c1 [JRW-1299, N-(3-methoxyphenyl)-2-((4-methylphenyl)sulfonamido)benzamide], the IC50 rises from 24 nM to 90 nM (3.8-fold).

Compared with Cc1ccc(S(=O)(=O)Nc2ccccc2C(=O)Nc2cccc(C(C)C)c2)cc1 [HL-0025, N-(3-isopropylphenyl)-2-((4-methylphenyl)sulfonamido)benzamide], Cc1ccc(S(=O)(=O)Nc2ccccc2C(=O)Nc2ccc3ccccc3c2)cc1 [HL-0007, 2-((4-methylphenyl)sulfonamido)-N-(naphthalen-2-yl)benzamide] is 6.1-fold lower in IC50: 85 nM for the first, 14 nM for the second. The second is the more potent here.

Going from CC(=O)Nc1cccc(S(=O)(=O)Nc2ccccc2C(=O)Nc2ccc(C)cc2)c1 [JRW-1253, 2-((3-acetamidophenyl)sulfonamido)-N-(p-tolyl)benzamide] to CCCCNc1cccc(S(=O)(=O)Nc2ccccc2C(=O)Nc2ccc(C)cc2)c1 [JRW-1269, 2-((3-(butylamino)phenyl)sulfonamido)-N-(p-tolyl)benzamide], the IC50 falls from 2300 nM to 1100 nM (2.1-fold). The second is the more potent here.

First: Cc1ccc(NC(=O)c2ccccc2NS(=O)(=O)c2cccc(CO)c2)cc1 [JRW-1261, 2-((3-(hydroxymethyl)phenyl)sulfonamido)-N-(p-tolyl)benzamide]
Second: Cc1ccc(NC(=O)c2ccccc2NS(=O)(=O)c2cccc(CCCO)c2)cc1 [JRW-1275, 2-((3-(3-hydroxypropyl)phenyl)sulfonamido)-N-(p-tolyl)benzamide]
The IC50 of the first is 2-fold lower: 170 nM for the first, 340 nM for the second. The first is the more potent here.

Compared with COc1cccc(S(=O)(=O)Nc2ccccc2C(=O)Nc2ccc(C)cc2)c1 [JRW-1205, 2-((3-methoxyphenyl)sulfonamido)-N-(p-tolyl)benzamide], Cc1ccc(NC(=O)c2ccccc2NS(=O)(=O)c2cccc(C#CCO)c2)cc1 [JRW-1272, 2-((3-(3-hydroxyprop-1-yn-1-yl)phenyl)sulfonamido)-N-(p-tolyl)benzamide] is 24-fold higher in IC50: 29 nM for the first, 700 nM for the second. The first is the more potent here.

Going from COC(=O)[C@H]1CC[C@H](NC(=O)c2ccccc2NS(=O)(=O)c2ccc(C)cc2)CC1 [HL-0009, methyl trans-4-(2-((4-methylphenyl)sulfonamido)benzamido)cyclohexane-1-carboxylate] to Cc1ccc(S(=O)(=O)Nc2ccccc2C(=O)N[C@H]2CC[C@H](C(=O)O)CC2)cc1 [HL-0012, trans-4-(2-((4-methylphenyl)sulfonamido)benzamido)cyclohexane-1-carboxylic acid], the IC50 falls from 16000 nM to 490 nM (33-fold).

Compared with Cc1ccc(S(=O)(=O)Nc2ccccc2C(=O)Nc2cc3ccccc3s2)cc1 [HL-0005, N-(benzo[b]thiophen-2-yl)-2-((4-methylphenyl)sulfonamido)benzamide], Cc1cccc(S(=O)(=O)Nc2ccccc2C(=O)Nc2cc3ccccc3s2)c1 [HL-0041, N-(benzo[b]thiophen-2-yl)-2-((3-methylphenyl)sulfonamido)benzamide] is 3.3-fold higher in IC50: 3.9 nM for the first, 13 nM for the second. The first is the more potent here.

Compared with Cc1ccc(S(=O)(=O)Nc2ccc(C#N)cc2C(=O)Nc2cc3ccccc3s2)cc1 [HL-0071, N-(benzo[b]thiophen-2-yl)-5-cyano-2-((4-methylphenyl)sulfonamido)benzamide], COc1ccccc1NC(=O)c1ccccc1NS(=O)(=O)c1ccc(C)cc1 [JRW-1292, N-(2-methoxyphenyl)-2-((4-methylphenyl)sulfonamido)benzamide] is 14-fold higher in IC50: 43 nM for the first, 590 nM for the second.

First: COc1ccc(NS(=O)(=O)c2ccc(C)cc2)c(C(=O)Nc2ccc(C)cc2)c1 [JRW-1166, 5-methoxy-2-((4-methylphenyl)sulfonamido)-N-(p-tolyl)benzamide]
Second: Cc1ccc(NC(=O)c2ccccc2NS(=O)(=O)c2ccc(C(F)(F)F)cc2)cc1 [JRW-1284, N-(p-tolyl)-2-((4-(trifluoromethyl)phenyl)sulfonamido)benzamide]
The IC50 of the first is 5.5-fold lower: 130 nM for the first, 710 nM for the second.

Reference: patent publication US12065421B2, “Inhibitors of oplophorus luciferase-derived bioluminescent complexes” (priority 2018, dated 2024)
